# Assay results: article PMC5853643, “Bombesin receptor subtype‐3‐expressing neurons regulate energy homeostasis through a novel neuronal pathway in the hypothalamus” (Brain and Behavior, 2017)
# Target: T1, Bombesin receptor subtype‐3 (BRS‐3) (Rattus norvegicus, UniProt Q8K418)
# T1 construct: gene Brs3
# T1 sequence (Q8K418 1-399): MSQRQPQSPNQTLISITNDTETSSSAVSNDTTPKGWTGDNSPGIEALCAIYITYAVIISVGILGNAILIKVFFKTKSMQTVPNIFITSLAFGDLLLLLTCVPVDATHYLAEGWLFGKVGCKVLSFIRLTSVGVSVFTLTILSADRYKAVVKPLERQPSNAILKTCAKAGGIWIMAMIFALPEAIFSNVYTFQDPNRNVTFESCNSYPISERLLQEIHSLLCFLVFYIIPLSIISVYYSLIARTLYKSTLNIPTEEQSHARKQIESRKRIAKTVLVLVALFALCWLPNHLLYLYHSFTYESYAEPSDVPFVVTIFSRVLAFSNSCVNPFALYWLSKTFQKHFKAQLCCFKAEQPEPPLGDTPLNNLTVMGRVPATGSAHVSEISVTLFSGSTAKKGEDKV
# Assay: agonist-induced Ca2+ mobilization, aequorin bioluminescence assay in CHO-K1 cells overexpressing BRS-3
# Type: cell-based
row,SMILES,EC50 [nM]
1,"COc1ccc2c(c1)C(=O)N(Cc1ccccc1)C(C(=O)NC(C)(C)C)c1ccccc1-2 (racemic) [compound-A, 6‐benzyl‐N‐tert‐butyl‐9‐methoxy‐7‐oxo‐6,7‐dihydro‐5H‐dibenzo[c,e]azepine‐5‐carboxamide]",100
2,"COc1ccc2c(c1)C(=O)N(Cc1ccccc1)C(C(=O)NC(C)(C)C)c1ccccc1-2 (racemic) [compound-C, compound‐C]",130
